Columns and labels:
[1] = typical duration; routine lidocaine versus tumescent infiltration; cited from earlier work
[2] = tested on: cutaneous blood vessels; assay: topical application of aqueous solution, erythema of the affected area; assay type: in vivo, human; details: patient, within minutes
Description: The fluid or the solution of pharmacologic drug may include a crystalloid solution or a dilute solution of pharmacologic drug such as an antibiotic. The drug used to accelerate the absorption rate of the fluid or the pharmacologic drug is operative to cause capillary vasodilatation, that is, vasodilatation of cutaneous blood vessels. The dilation of capillaries increases the rate of blood flowing through the affected subcutaneous tissue; and consequently, increases the rate of absorption into the systemic circulation of the fluid or pharmacologic drug. As the rate of absorption and circulation of the fluid or pharmacologic drug increases, a clinically significant degree of systemic absorption of the fluid or pharmacologic drug can be achieved without the application of IV access. Currently, many drugs are available to provide the vasodilatation of cutaneous blood vessels of a human body. However, it is appreciated that those drugs which are pharmacologic and potentially toxic to the human bodies are not the appropriate candidates for such drug. For example, although lidocaine is effective to cause dilation of capillaries and increase the rate of blood flowing through affected subcutaneous tissue, which in turn accelerates the absorption rate of drug, it might not be an appropriate candidate for such a drug due to its potentially toxic effect if its concentration is too high. […]

| Compound | duration of local anesthesia [1] [h] | erythema of the affected area [2] |
| --- | --- | --- |
| CCN(CC)CC(=O)Nc1c(C)cccc1C [lidocaine] | ~2 | – |
| CNC(=O)c1cccnc1 [methyl-nicotinamide] | – | very obvious erythema |
| COC(=O)c1cccnc1 [methyl-nicotinate] | – | very obvious erythema |
